Experimental findings from patent US12403088B2, “Ophthalmic compositions and methods for reducing oxidative damage to an eye lens” (University of Louisville Research Foundation, Inc., priority 2015, dated 2025) are described below.

This experiment relates to excised porcine lenses. The experiment is described as follows: Protein oxidation (OxyBlot) in excised porcine lenses cultured under hyperoxic conditions mimicking post-vitrectomy oxygen levels. Format: cell-based. As for the experimental part:
To assess the ability of the antioxidant compositions including non-reducing sugars to reduce oxidative damage to an eye lens of a subject, trehalose, a non-reducing disaccharide, was applied to lenses being cultured under hyperoxic (high oxygen) conditions that mimic post-vitrectomy intravitreal oxygen levels. Briefly, six excised porcine lenses were cultured in M199 media with 4% porcine serum at 37° C. for 1 week to acclimate to culture conditions. Then, 3 lenses were exposed to media with 7.5% trehalose while three control lenses remained untreated. At regular intervals, incubated lenses were examined under a dissecting microscope against a background of black gridlines. The oxygen concentration was controlled to mimic post-vitrectomy conditions. After 10 days, each lens was analyzed for protein oxidation using the OxBlot Oxidized Protein Detection Kit (Chemicon, International, Billerica, MA) to quantify the ability of the gel application method to protect the lens.
The method described above was used to compare the effect of a subject trehalose composition freely dispersed in the tissue culture media (FIG. 1, first bar) to a biogel composition that was described by Tezel et al. in WO2014081969A1 (“Compositions and methods for reducing oxidative damage”) and which includes trehalose within a polymer gel. […]

For the compound `OC[C@H]1O[C@H](O[C@H]2O[C@H](CO)[C@@H](O)[C@H](O)[C@H]2O)[C@H](O)[C@@H](O)[C@@H]1O` [trehalose, α,α-1,1-Trehalose], the “amount of protein oxidation in the lens (in words)” value (administration of trehalose to the eye lens, ex vivo, FIG. 1) is reported as “reduced an amount of protein oxidation in the lens”. For the same compound, the “reduction in protein oxidation levels to” value (trehalose composition freely dispersed in tissue culture media (7.5% trehalose), hyperoxic culture, 10 days, FIG. 1 bar 1) was “about 20%”.
